Experimental findings from patent EP4737445A1, “NOVEL SATURATED HETEROCYCLE-SUBSTITUTED HETEROARYL-CARBONOHYDRAZONOYL DICYANIDE COMPOUND AND USE THEREOF” (Korea Institute of Science and Technology, priority 2023, dated 2025) are described below.

What all share (format): cell-based
One series has as its system Tau-BiFC cells. Briefly: Cell viability (stained nuclei count) in Tau-BiFC cells. Here is the method: (§1) To screen for new tau aggregation inhibitors, a Tau-BiFC cell model that facilitates observation of tau oligomer formation in living cells was used. Tau-BiFC cells were dispensed into a 384-well plate, and the next day, the compounds prepared according to Examples 1 to 46 were treated at concentrations of 1, 3, and 10 µM, respectively, together with Forskolin (treatment concentration 30 µM), which is a compound that induces tau aggregation by activating the tau phosphorylation enzyme PKA. After 48 hours, nuclei within cells were stained using Hoechst (treatment concentration 2 µg/mL), and BiFC fluorescence intensity was automatically quantified using Operetta (Perkin Elmer) to count the stained nuclei in each well from the entire plate. The group treated only with Forskolin, which induces tau aggregation, was set as the reference point with 100% tau aggregation state, and the effect was confirmed by the formula "BiFC fluorescence intensity by the compounds synthesized according to the Examples of the disclosure/(fluorescence intensity of the control group treated only with Forskolin that induces tau aggregation - fluorescence intensity of the untreated control group) × 100". In addition, the degree of cytotoxicity induced by the newly synthesized compounds was also calculated using the formula "(number of stained nuclei in the compound-treated group/number of stained nuclei in the Forskolin-treated group) × 100", with the group treated only with Forskolin as the reference point at 100% viability. From the treatment results, substances that inhibit intracellular tau aggregation were identified through screening from a series of candidates based on the criteria of 70% or more tau aggregation inhibition and 100% cell viability at a compound treatment concentration of 10 µM.
(§2) To confirm the tau aggregation inhibitory effect according to the concentration of the compounds screened in Experimental Example 1, the screened compounds were treated to Tau-BiFC cells at concentrations of 0.03, 0.1, 0.3, 1, 3, 10, and 30 µM, respectively, together with Forskolin (treatment concentration 30 µM), which is a tau aggregation-inducing substance. After 48 hours, cell images were examined to analyze the tau aggregation reaction and degree of cytotoxicity. The IC50 and toxicity of the compounds were analyzed by nonlinear regression analysis using Prism software (GraphPad). The calculated results for representative compounds are shown in Table 3 below: Tau aggregation inhibitory effect and cell viability of novel compounds.

A further series concerns the target T1, Tau (Homo sapiens, UniProt P10636).
T1 construct: BiFC fluorescent-protein fragments (two complementary halves on two tau copies); expressed in transfected cells
Kind of series: Tau aggregation inhibition in Tau-BiFC cell model (Forskolin-induced). On the procedure: as §1, §2

The target of the next series is T2, TDP-43 protein (Homo sapiens, UniProt Q13148).
T2 construct: BiFC fluorescent-protein fragments (two complementary halves); expressed in transfected cells
T2 sequence (Q13148 whole entry, the tested form may be a part): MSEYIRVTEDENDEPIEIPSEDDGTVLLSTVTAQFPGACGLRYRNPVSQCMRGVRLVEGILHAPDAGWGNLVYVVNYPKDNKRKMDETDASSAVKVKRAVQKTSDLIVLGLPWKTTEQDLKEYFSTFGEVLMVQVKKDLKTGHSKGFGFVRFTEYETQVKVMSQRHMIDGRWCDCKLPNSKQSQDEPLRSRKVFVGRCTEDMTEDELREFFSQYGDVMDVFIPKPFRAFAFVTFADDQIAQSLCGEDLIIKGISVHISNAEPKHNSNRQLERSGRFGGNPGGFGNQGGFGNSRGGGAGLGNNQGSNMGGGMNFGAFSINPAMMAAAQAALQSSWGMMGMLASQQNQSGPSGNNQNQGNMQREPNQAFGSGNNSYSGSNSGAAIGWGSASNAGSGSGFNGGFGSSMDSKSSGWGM
Briefly: TDP-43 aggregation inhibition in TDP-43-BiFC cell model (Forskolin-induced). Conditions: for inhibition at 3 µM: read-out: TDP-43 protein aggregation inhibitory effect: Aggregation inhibitory effect (%) (@3 uM). Here is the method: (§3) To screen for new TDP-43 aggregation inhibitors, a TDP-43-BiFC cell model that facilitates observation of TDP-43 aggregate formation in living cells was used. Specifically, TDP-43-BiFC cells were dispensed into a 384-well plate, and the next day, the compounds prepared according to Examples 1 to 46 were treated at concentrations of 3 and 10 µM, respectively, together with Forskolin (treatment concentration 30 µM), which is a compound that induces TDP-43 aggregation by activating the phosphorylation enzyme PKA. After 48 hours, nuclei within cells were stained using Hoechst (treatment concentration 1 µg/mL), and BiFC fluorescence intensity was automatically quantified using Operetta (PerkinElmer) to count the stained nuclei in each well from the entire plate. The group treated only with Forskolin, which induces TDP-43 aggregation, was set as the reference point with 100% TDP-43 aggregation state, and the effect was confirmed by the formula "(BiFC fluorescence intensity by the compounds synthesized according to the Examples of the disclosure - fluorescence intensity of the untreated control group)/(fluorescence intensity of the control group treated only with Forskolin that induces TDP-43 aggregation - fluorescence intensity of the untreated control group) × 100". In addition, the degree of cytotoxicity induced by the newly synthesized compounds was also calculated using the formula "(number of stained nuclei in the compound-treated group/number of stained nuclei in the Forskolin-treated group) × 100", with the group treated only with Forskolin as the reference point at 100% viability. From the treatment results, substances that inhibit intracellular TDP-43 aggregation were identified through screening from a series of candidates based on the criteria of 80% or more TDP-43 aggregation inhibition and 60% cell viability at a compound treatment concentration of 3 µM.
(§4) Furthermore, to confirm the TDP-43 aggregation inhibitory effect according to the concentration of the compounds screened in Experimental Example 3, the screened compounds were treated to […] at concentrations of 0.003, 0.01, 0.03, 0.1, 0.3, 1, 3, and 10 µM, respectively, together with Forskolin (treatment concentration 30 µM), which is a TDP-43 aggregation-inducing substance. After 48 hours, cell images were examined to analyze the TDP-43 aggregation reaction and degree of cytotoxicity. The IC50 and toxicity of the compounds were analyzed by nonlinear regression analysis using Prism software (GraphPad). The calculated results for representative compounds are shown in Table 4 below: TDP-43 protein aggregation inhibitory effect and cell viability of novel compounds.

The next series concerns TDP-43 BiFC cells. Briefly: Cell viability (stained nuclei count) in TDP-43-BiFC cells. Particulars: Forskolin-only group = 100%. Here is the method: as §3, §4
Where [1] appears, read: @10 µM, Tau-BiFC cell line, Forskolin-only group = 100%.
The mark [2] stands for this setting: Tau-BiFC cell line, Forskolin 30 µM, 48 hours, 0.03-30 µM, read-out: Tau aggregation inhibitory effect IC50.
[3] abbreviates: @3 uM, TDP-43 BiFC cells, Forskolin 30 µM, 48 hours.

The structures appear in SMILES notation. Read-outs that look alike come from different tables or passages of the source.

T1 sequence (P10636 1-441 isoform P10636-8): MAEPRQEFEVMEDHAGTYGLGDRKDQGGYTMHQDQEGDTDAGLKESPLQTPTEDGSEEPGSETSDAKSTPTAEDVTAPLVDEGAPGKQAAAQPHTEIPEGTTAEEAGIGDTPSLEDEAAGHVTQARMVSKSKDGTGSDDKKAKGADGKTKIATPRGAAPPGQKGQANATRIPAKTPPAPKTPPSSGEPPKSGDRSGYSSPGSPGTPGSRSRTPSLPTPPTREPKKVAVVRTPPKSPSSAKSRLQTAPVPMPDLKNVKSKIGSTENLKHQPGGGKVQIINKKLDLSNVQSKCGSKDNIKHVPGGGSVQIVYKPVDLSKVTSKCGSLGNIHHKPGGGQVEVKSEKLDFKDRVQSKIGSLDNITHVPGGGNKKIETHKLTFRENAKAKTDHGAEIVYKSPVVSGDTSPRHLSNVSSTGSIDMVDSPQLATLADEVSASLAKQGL

Consider `N#CC(C#N)=NNc1ccc2nc(-c3ccccc3)sc2c1` [Comparative compound 2, N-(2-phenylbenzo[d]thiazol-6-yl) carbonohydrazonoyl dicyanide, reference compound], for which, in the series on Tau-BiFC cells (setting [1]), the “Cell viability (% @10µM)” value is 65%. Also, the midpoint of inhibition on Tau, the IC50, lay at 2800 nM.
The like results for `N#CC(C#N)=NNc1ccc2nc(-c3ccc(F)cc3)sc2c1` [Comparative compound 3, N-(2-(4-fluorophenyl)benzo[d]thiazol-6-yl) carbonohydrazonoyl dicyanide, reference compound] were, in that order, 50% and 3200 nM.
Turning to `CN(C)c1ccc(-c2nc3ccc(NN=C(C#N)C#N)cc3s2)cc1` [Comparative compound 4, N-(2-(4-(dimethylamino)phenyl)benzo[d]thiazol-6-yl) carbonohydrazonoyl dicyanide, reference compound], in the series on Tau-BiFC cells (setting [1]), the “Cell viability (% @10µM)” value came to 80%. Also, at Tau (setting [2]), the IC50 is 3100 nM.
On to `N#CC(C#N)=NNc1ccc2nc(-c3cccs3)sc2c1` [Comparative compound 5, N-(2-(thiophen-2-yl)benzo[d]thiazol-6-yl) carbonohydrazonoyl dicyanide, reference compound], for which, in the series on Tau-BiFC cells (setting [1]), the “Cell viability (% @10µM)” value was determined as 70%. This compound gave an IC50 against Tau of 7300 nM.
For the compound `N#CC(C#N)=NNc1cc2oc(N3CCOCC3)nc2cc1Cl` [Compound 19, (5-chloro-2-morpholinobenzo[d]oxazol-6-yl)carbonohydrazonoyl dicyanide], in the series on Tau-BiFC cells (setting [1]), the “Cell viability (% @10µM)” value is recorded as 100%. Moreover, the inhibition at 3 µM on TDP-43 protein came out at 92.6%. Moreover, the “Cell viability (%) (@ 3 uM)” value in the series on TDP-43 BiFC cells is 97.0%. Moreover, inhibition against Tau was half-maximal at 453 nM (IC50).
Regarding `CC(C)(C)OC(=O)N1CCN(c2nc3ccc(NN=C(C#N)C#N)cc3s2)CC1` [Compound 22, tert-butyl 4-(6-(2-(dicyanomethylene)hydrazinyl)benzo[d]thiazol-2-yl)piperazine-1-carboxylate], the inhibition at 3 µM on TDP-43 protein (setting [3]) turned out to be 66.5%. The “Cell viability (%) (@ 3 uM)” value with TDP-43 BiFC cells is listed as 130.7%.
Consider `C[C@@H]1CN(c2nc3ccc(NN=C(C#N)C#N)cc3s2)C[C@H](C)N1C(=O)OC(C)(C)C` [Compound 29, (2R,6S)-tert-butyl 4-(6-(2-(dicyanomethylene)hydrazinyl)benzo[d]thiazol-2-yl)-2,6-dimethylpiperazine-1-carboxylate], for which, in the series on Tau-BiFC cells (48 h, 10 µM), the “Cell viability (% @10µM)” value is recorded as 97%. For the same compound, at TDP-43 protein (setting [3]), the inhibition at 3 µM was determined as 47.2%. Moreover, the “Cell viability (%) (@ 3 uM)” value in the series on TDP-43 BiFC cells is 96.2%. The IC50 at Tau (setting [2]) worked out at 36 nM.
Consider `CN(N=C(C#N)C#N)c1ccc2nc(N3C4CCC3COC4)sc2c1` [Compound 36, (2-(3-oxa-8-azabicyclo[3.2.1]octan-8-yl)benzo[d]thiazol-6-yl)(methyl)carbonohydrazonoyl dicyanide], for which the “Cell viability (% @10µM)” value in the series with Tau-BiFC cells (setting [1]) worked out at 97%. On Tau, the IC50 was found to be 136 nM.
Regarding `CC(=O)N(N=C(C#N)C#N)c1ccc2nc(N3CCOCC3)sc2c1` [Compound 37, acetyl(2-morpholinobenzo[d]thiazol-6-yl)carbonohydrazonoyl dicyanide], the “Cell viability (% @10µM)” value in the series on Tau-BiFC cells (setting [1]) was determined as 85%. On TDP-43 protein, inhibition was half-maximal at 0.7 nM (IC50) and the inhibition at 3 µM stood at 91.2%. In addition, the “Cell viability (%) (@ 3 uM)” value with TDP-43 BiFC cells is given as 61.3%. The IC50 at Tau was determined as 24 nM.
`N#CC(C#N)=NNc1ccc2nc(N3CCC[C@H](F)C3)oc2c1` [Compound 42, (S)-(2-(3-fluoropiperidin-1-yl)benzo[d]oxazol-6-yl)carbonohydrazonoyl dicyanide]: in the series on Tau-BiFC cells (setting [1]), the “Cell viability (% @10µM)” value worked out at 100%. Besides, the inhibition at 3 µM on TDP-43 protein turned out to be 64.7%. In addition, the “Cell viability (%) (@ 3 uM)” value in the series with TDP-43 BiFC cells turned out to be 62.4%. On Tau, inhibition was half-maximal at 20 nM (IC50).
Turning to `N#CC(C#N)=NNc1ccc2nc(N3CC[C@H](F)C3)oc2c1` [Compound 43, (S)-(2-(3-fluoropyrrolidin-1-yl)benzo[d]oxazol-6-yl)carbonohydrazonoyl dicyanide], the “Cell viability (% @10µM)” value in the series with Tau-BiFC cells (setting [1]) stood at 100%. The inhibition at 3 µM on TDP-43 protein is 92.9%. In the series with TDP-43 BiFC cells, the “Cell viability (%) (@ 3 uM)” value is listed as 89.0%. The IC50 at Tau (read-out: Tau aggregation inhibitory effect IC50, Tau-BiFC cell line, Forskolin 30 µM, 48 hours, 0.03-30 µM) came out at 28 nM.
As to `N#CC(C#N)=NNc1ccc2nc(N3CCCC(F)C3)oc2c1` (stereo not shown) [Compound 44, (2-(3-fluoropiperidin-1-yl)benzo[d]oxazol-6-yl)carbonohydrazonoyl dicyanide], the “Cell viability (% @10µM)” value in the series with Tau-BiFC cells (setting [1]) turned out to be 100%. For the same compound, on TDP-43 protein, the inhibition at 3 µM stood at 71.1%. In addition, in the series on TDP-43 BiFC cells, the “Cell viability (%) (@ 3 uM)” value is recorded as 85.0%. Also, it took 12 nM to reach half-maximal inhibition against Tau (IC50).
Regarding `N#CC(C#N)=NNc1ccc2nc(N3CCCC3)oc2c1` [Compound 45, (2-(pyrrolidin-1-yl)benzo[d]oxazol-6-yl)carbonohydrazonoyl dicyanide], in the series with Tau-BiFC cells (setting [1]), the “Cell viability (% @10µM)” value turned out to be 98%. The IC50 against TDP-43 protein was 371 nM; on Tau, 4 nM. Besides, the inhibition at 3 µM on TDP-43 protein stood at 81.1%. Also, the “Cell viability (%) (@ 3 uM)” value in the series on TDP-43 BiFC cells came out at 73.6%.
The like results for `N#CC(C#N)=NNc1ccc2nc(N3CCCCC3)oc2c1` [Compound 46, (2-(piperidin-1-yl)benzo[d]oxazol-6-yl)carbonohydrazonoyl dicyanide] were, in that order, 100%, 320 nM, 16 nM, 81.4% and 73.6%.
Regarding `N#CC(C#N)=NNc1ccc2nc(N3CCC[C@@H](F)C3)oc2c1` [Compound 47, (R)-N-(2-(3-fluoropiperidin-1-yl)benzo[d]oxazol-6-yl)carbonohydrazonoyl dicyanide], in the series on Tau-BiFC cells (setting [1]), the “Cell viability (% @10µM)” value was found to be 100%. At Tau, this compound displayed an IC50 of 117 nM.

The IC50 is the midpoint of a concentration-inhibition curve.
